Measured values as given in US20200163984A1, “USE OF ISOVALERYL SPIRAMYCIN I, II AND/OR III IN MANUFACTURING MEDICAMENT FOR TREATING AND/OR PREVENTING TUMOR, AND MEDICAMENT” (SHENYANG FUYANG PHARMACEUTICAL TECHNOLOGY CO., LTD., priority 2017, published 2020).

What was measured:
[1] = tested on: transplanted tumor of human glioma cell U251; assay: U251 transplanted tumor in nude mice; conditions: for Tumor Volume (mm3) (d 1): d1
Experimental: (§1) U251 cells in a logarithmic growth phase were taken and subjected to a trypan blue exclusion experiment showing that the cell viability was more than 95%, then the cells were subjected to trypsinization, centrifugation, and supernatant removal. Then cell concentration was adjusted to 1×10^7/ml with matrigel, then each nude mouse was inoculated subcutaneously with 0.2 ml of cells at its right armpit and recorded as the first day of inoculation. When the tumor grows to be greater than or equal to 100 mm^3, the mice were randomly divided into 11 groups with 6 mice in each group: a model group, a cyclophosphamide group, isovaleryl spiramycin I groups with doses of 25, 50 and 100 mg/kg, isovaleryl spiramycin II groups with doses of 25, 50 and 100 mg/kg, and isovaleryl spiramycin III groups with doses of 25, 50 and 100 mg/kg. Each group was continuously administered intragastrically for 30 days with a dose of 20 ml/kg. The mice were sacrificed the next day after drug withdrawal and the indicators were tested. The long diameter and short diameter of the tumor, and the body weight of each mouse were recorded every 3 days from drug administration to nude mouse sacrifice.
(§2) The body weight of the nude mice and the long diameter (a) and short diameter (b) of the transplanted tumor were measured every 3 days, and the tumor volume (v), relative tumor volume (RTV) and relative tumor proliferation rate (T/C) are calculated respectively according to the following formulas, wherein V=a×b^2/2; RTV=V/V0 (V0 is the tumor volume before administration, V is the tumor volume before sacrifice), and T/C (%)=treatment group RTV/model control group RTV×100%.
(§3) Each mouse was weighed and sacrificed. After the tumor was completely stripped off from the body of the mouse, the non-tumor tissues such as blood stains and fat were removed to weigh the tumor and calculate the tumor growth inhibition rate. The average tumor weight of each group of mice is used as an indicator of efficacy. Tumor growth inhibition rate (%)=(1−the average tumor weight of the treatment group/the average tumor weight of the model group)×100%.

[2] = tested on: transplanted tumor of HT-29 cells; assay: HT-29 transplanted tumor in nude mice; conditions: for Inhibition Rate (%) / Tumor Weight: HT-29 nude mice; for Tumor Volume (mm3) (d30): d 30
Experimental: as §1, with “Then” for “U251 cells in a logarithmic growth phase were taken and subjected to a trypan blue exclusion experiment showing that the cell viability was more than 95%, then the cells were subjected to trypsinization, centrifugation, and supernatant removal. Then”, “group:” for “group: a model group, a cyclophosphamide group,”
as §2, §3

[3] = U251, high dose (100 mg/kg in method) i.g. 30 days
[4] = U251, low dose (25 mg/kg in method) i.g. 30 days
[5] = U251, medium dose (50 mg/kg in method) i.g. 30 days
[6] = HT-29, high dose (100 mg/kg in method) i.g. 30 days
[7] = HT-29, low dose (25 mg/kg in method) i.g. 30 days
[8] = HT-29, medium dose (50 mg/kg in method) i.g. 30 days

## COC1C(OC(C)=O)CC(=O)OC(C)CC=CC=CC(OC2CCC(N(C)C)C(C)O2)C(C)CC(CC=O)C1OC1OC(C)C(OC2CC(C)(O)C(OC(=O)CC(C)C)C(C)O2)C(N(C)C)C1O (stereo not shown) [Isovaleryl spiramycin II, isovaleryl spiramycin II]
[1]; [3]
  Relative Tumor Proliferation Rate (T/C): 43.26%
  tumor growth inhibition rate: 40.26%
[1]; [4]
  Relative Tumor Proliferation Rate (T/C): 76.14%
  tumor growth inhibition rate: 10.91%
[1]; U251, low, medium and high doses, P<0.05
  tumor volume and relative tumor volume compared with the model group: significantly lower
[1]; [5]
  Relative Tumor Proliferation Rate (T/C): 51.88%
  tumor growth inhibition rate: 15.81%
[1]; U251 nude mice, 25 mg/kg
  Inhibition Rate (%): 10.91%
  Relative Tumor Proliferation Rate (T/C): 76.14%
  Relative Tumor Volume (RTV): 14.73 ± 1.33
  Tumor Weight: 1.23 ± 0.12 g
  Tumor Volume (mm3) (d 1): 125.90 ± 11.45 mm3
  Tumor Volume (mm3) (d30): 1596.45 ± 267.65 mm3
[1]; U251 nude mice, 50 mg/kg
  Inhibition Rate (%): 15.81%
  Relative Tumor Proliferation Rate (T/C): 51.88%
  Relative Tumor Volume (RTV): 14.31 ± 0.98
  Tumor Weight: 1.16 ± 0.10 g
  Tumor Volume (mm3) (d 1): 118.33 ± 11.65 mm3
  Tumor Volume (mm3) (d30): 1030.10 ± 207.19 mm3
[1]; U251 nude mice, 100 mg/kg
  Inhibition Rate (%): 40.26%
  Relative Tumor Proliferation Rate (T/C): 43.26%
  Relative Tumor Volume (RTV): 12.88 ± 1.54
  Tumor Weight: 0.83 ± 0.12 g
  Tumor Volume (mm3) (d 1): 122.74 ± 10.75 mm3
  Tumor Volume (mm3) (d30): 890.78 ± 225.34 mm3
[1]; mouse, in vivo
  mouse weight compared with the model group: no significant changes
[1]; mouse, in vivo, 25 mg/kg
  Body Weight (g) (d1): 20.77 ± 0.65 g
  Body Weight (g) (d30): 20.85 ± 0.79 g
[1]; mouse, in vivo, 50 mg/kg
  Body Weight (g) (d1): 21.25 ± 0.46 g
  Body Weight (g) (d30): 20.86 ± 0.43 g
[1]; mouse, in vivo, 100 mg/kg
  Body Weight (g) (d1): 20.92 ± 0.82 g
  Body Weight (g) (d30): 21.47 ± 0.70 g
[2]; [6]
  Relative Tumor Proliferation Rate (T/C): 44.05%
  tumor growth inhibition rate: 55.74%
[2]; [7]
  Relative Tumor Proliferation Rate (T/C): 84.18%
  tumor growth inhibition rate: 16.24%
[2]; HT-29, low, medium and high doses, P<0.05
  tumor volume and relative tumor volume compared with the model group: significantly lower
[2]; [8]
  Relative Tumor Proliferation Rate (T/C): 79.34%
  tumor growth inhibition rate: 32.41%
[2]; 25 mg/kg
  Inhibition Rate (%): 16.24%
  Tumor Weight: 1.97 ± 0.34 g
[2]; 50 mg/kg
  Inhibition Rate (%): 32.41%
  Tumor Weight: 1.59 ± 0.49 g
[2]; 100 mg/kg
  Inhibition Rate (%): 55.74%
  Tumor Weight: 1.04 ± 0.40 g
[2]; dose 25 mg/kg
  Relative Tumor Proliferation Rate (T/C): 84.18%
  Relative Tumor Volume (RTV): 12.13 ± 3.40
  Tumor Volume (mm3) (d 1): 163.26 ± 38.80 mm3
  Tumor Volume (mm3) (d30): 1885.85 ± 219.49 mm3
[2]; dose 50 mg/kg
  Relative Tumor Proliferation Rate (T/C): 79.34%
  Relative Tumor Volume (RTV): 11.43 ± 5.13
  Tumor Volume (mm3) (d 1): 142.56 ± 22.44 mm3
  Tumor Volume (mm3) (d30): 1568.80 ± 603.77 mm3
[2]; dose 100 mg/kg
  Relative Tumor Proliferation Rate (T/C): 44.05%
  Relative Tumor Volume (RTV): 6.35 ± 2.87
  Tumor Volume (mm3) (d 1): 156.45 ± 37.20 mm3
  Tumor Volume (mm3) (d30): 921.49 ± 299.38 mm3
[2]; mouse, in vivo
  mouse weight compared with the model group: no significant changes
[2]; mouse, in vivo, 25 mg/kg
  Body Weight (g) (d1): 21.04 ± 1.28 g
  Body Weight (g) (d30): 20.88 ± 1.29 g
[2]; mouse, in vivo, 50 mg/kg
  Body Weight (g) (d1): 21.36 ± 1.35 g
  Body Weight (g) (d30): 20.9 ± 1.29 g
[2]; mouse, in vivo, 100 mg/kg
  Body Weight (g) (d1): 20.80 ± 0.89 g
  Body Weight (g) (d30): 21.53 ± 1.08 g
